Measurements reported in patent US20260285875A1, “INHIBITORS OF PARG” (858 Therapeutics, Inc., priority 2023, published 2026).
pIC50: −log10 of the molar value.

What follows are compounds tested against T1, cellular PARG (Homo sapiens, UniProt Q86W56) (assay: Nuclear PAR accumulation assay (immunofluorescence high-content imaging, MMS-treated HeLa cells)). Conditions: 1 hour compound then MMS 50 μg/mL for an additional hour.
T1 construct: endogenous in cells; host or cells: HeLa
Format: cell-based
Summary of the method: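 HeLa cells pretreated with compound for 1 h at 37° C, then given 50 μg/mL MMS for another hour. After methanol fixation, PAR was immunostained with DAPI nuclear counterstain; per-nucleus intensity and percent PAR-positive cells were imaged at 20× (≥1,000 cells/well). IC50 from four-parameter logistic fit.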

T1 sequence (Q86W56 whole entry): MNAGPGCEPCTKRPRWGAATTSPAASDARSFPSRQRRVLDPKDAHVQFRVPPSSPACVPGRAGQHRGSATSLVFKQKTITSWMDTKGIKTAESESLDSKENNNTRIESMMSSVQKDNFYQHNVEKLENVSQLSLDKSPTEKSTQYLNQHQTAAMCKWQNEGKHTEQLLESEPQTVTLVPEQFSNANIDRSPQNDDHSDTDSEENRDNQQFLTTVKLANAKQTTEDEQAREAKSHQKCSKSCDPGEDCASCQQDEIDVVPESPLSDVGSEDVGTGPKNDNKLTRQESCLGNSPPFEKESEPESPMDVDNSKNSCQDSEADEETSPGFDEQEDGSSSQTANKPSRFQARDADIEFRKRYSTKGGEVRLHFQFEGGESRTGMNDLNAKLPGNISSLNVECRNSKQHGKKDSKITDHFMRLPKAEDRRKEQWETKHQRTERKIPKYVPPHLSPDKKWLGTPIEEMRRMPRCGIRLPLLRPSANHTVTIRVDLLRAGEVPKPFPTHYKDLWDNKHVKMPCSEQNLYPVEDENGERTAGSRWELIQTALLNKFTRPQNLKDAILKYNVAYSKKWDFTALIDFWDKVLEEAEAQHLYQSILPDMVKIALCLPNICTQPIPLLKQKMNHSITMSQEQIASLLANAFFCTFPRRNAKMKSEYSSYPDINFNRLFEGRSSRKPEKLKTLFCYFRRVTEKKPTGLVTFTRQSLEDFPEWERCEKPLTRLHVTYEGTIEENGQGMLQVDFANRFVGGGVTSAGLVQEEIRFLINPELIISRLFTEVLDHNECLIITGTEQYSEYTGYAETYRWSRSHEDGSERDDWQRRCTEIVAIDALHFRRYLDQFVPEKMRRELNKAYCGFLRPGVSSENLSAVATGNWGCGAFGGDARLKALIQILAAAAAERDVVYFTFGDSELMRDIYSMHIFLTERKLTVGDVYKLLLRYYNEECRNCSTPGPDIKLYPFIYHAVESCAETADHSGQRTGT

| pIC50 | Structure (SMILES) |
| --- | --- |
| > 7.00 | CN(C)C(=O)N1CCN(c2cc(S(=O)(=O)NC3(C)CC3)cc3c2N2CC(C)(C)N=C2N(C)C3=O)CC1 [Example 46, N,N-dimethyl-4-(2,2,4-trimethyl-7-(N-(1-methylcyclopropyl)sulfamoyl)-5-oxo-1,2,4,5-tetrahydroimidazo[1,2-a]quinazolin-9-yl)piperazine-1-carboxamide] |
| > 7.00 | [2H]C([2H])(c1cnn(C)c1)N1C(=O)c2cc(S(=O)(=O)NC3(C)CC3)ccc2N2C1=NC[C@H]2COc1cnn(C)c1 [Example 108, (S)-4-((1-methyl-1H-pyrazol-4-yl)methyl-d2)-1-(((1-methyl-1H-pyrazol-4-yl)oxy)methyl)-N-(1-methylcyclopropyl)-5-oxo-1,2,4,5-tetrahydroimidazo[1,2-a]quinazoline-7-sulfonamide] |
| > 7.00 | Cc1cc(F)ccc1-c1cc(S(=O)(=O)NC2(C)CC2)cc2c1N1C(=NC[C@H]1C)N(Cc1cnn(C)c1)C2=O [Example 32, (R)-9-(4-fluoro-2-methylphenyl)-1-methyl-4-((1-methyl-1H-pyrazol-4-yl)methyl)-N-(1-methylcyclopropyl)-5-oxo-1,2,4,5-tetrahydroimidazo[1,2-a]quinazoline-7-sulfonamide] |
| 6.00 to 7.00 | C[C@@H]1CN=C2N(Cc3cnn(C)c3)C(=O)c3cc(S(=O)(=O)NC4(C)CC4)cc(N4CCC(O)CC4)c3N21 [Example 27, (R)-9-(4-hydroxypiperidin-1-yl)-1-methyl-4-((1-methyl-1H-pyrazol-4-yl)methyl)-N-(1-methylcyclopropyl)-5-oxo-1,2,4,5-tetrahydroimidazo[1,2-a]quinazoline-7-sulfonamide] |
| 6.00 to 7.00 | Cn1cc(C#C[C@H]2CN=C3N(Cc4cnn(C)c4)C(=O)c4cc(S(=O)(=O)NC5(C)CC5)ccc4N32)cn1 [Example 91, (S′)-1-((1-methyl-1H-pyrazol-4-yl)ethynyl)-4-((1-methyl-1H-pyrazol-4-yl)methyl)-N-(1-methylcyclopropyl)-5-oxo-1,2,4,5-tetrahydroimidazo[1,2-a]quinazoline-7-sulfonamide] |
| > 7.00 | [2H]C([2H])(c1cnn(C)c1)N1C(=O)c2cc(S(=O)(=O)NC3(C)CC3)ccc2N2C1=NC[C@H]2C#Cc1nccnc1OC [Example 249, (R)-1-((3-methoxypyrazin-2-yl)ethynyl)-4-((1-methyl-1H-pyrazol-4-yl)methyl-d2)-N-(1-methylcyclopropyl)-5-oxo-1,2,4,5-tetrahydroimidazo[1,2-a]quinazoline-7-sulfonamide] |
| 6.00 to 7.00 | Cc1nc([C@@H]2CN=C3N(Cc4cnn(C)c4)C(=O)c4cc(S(=O)(=O)NC5(C)CC5)ccc4N32)co1 [Example 119, (S)-4-((1-methyl-1H-pyrazol-4-yl)methyl)-N-(1-methylcyclopropyl)-1-(2-methyloxazol-4-yl)-5-oxo-1,2,4,5-tetrahydroimidazo[1,2-a]quinazoline-7-sulfonamide] |
| 6.00 to 7.00 | Cn1cc(CN2C(=O)c3cc(S(=O)(=O)NC4(C)CC4)ccc3N3C2=NCC3COc2ccc(C#N)cc2)cn1 (stereo not shown) [Example 135, 1-((4-cyanophenoxy)methyl)-4-((1-methyl-1H-pyrazol-4-yl)methyl)-N-(1-methylcyclopropyl)-5-oxo-1,2,4,5-tetrahydroimidazo[1,2-a]quinazoline-7-sulfonamide] |
| 6.00 to 7.00 | CN1C(=O)c2cc(S(=O)(=O)NC3(C)CC3)ccc2N2C1=NCC2C#Cc1ccn(C)c(=O)c1 (stereo not shown) [Example 200, 4-methyl-1-((1-methyl-2-oxo-1,2-dihydropyridin-4-yl)ethynyl)-N-(1-methylcyclopropyl)-5-oxo-1,2,4,5-tetrahydroimidazo[1,2-a]quinazoline-7-sulfonamide] |
| > 7.00 | Cn1cc(CN2C(=O)c3cc(S(=O)(=O)NC4(C)CC4)ccc3N3C2=NC[C@H]3C#CC(F)F)cn1 [Example 99, (R)-1-(3,3-difluoroprop-1-yn-1-yl)-4-((1-methyl-1H-pyrazol-4-yl)methyl)-N-(1-methylcyclopropyl)-5-oxo-1,2,4,5-tetrahydroimidazo[1,2-a]quinazoline-7-sulfonamide] |
| > 7.00 | Cn1cc(CN2C(=O)c3cc(S(=O)(=O)NC4(C)CC4)ccc3N3C2=NC[C@H]3C#Cc2ccccn2)cn1 [Example 67, (R)-4-((1-methyl-1H-pyrazol-4-yl)methyl)-N-(1-methylcyclopropyl)-5-oxo-1-(pyridin-2-ylethynyl)-1,2,4,5-tetrahydroimidazo[1,2-a]quinazoline-7-sulfonamide] |
| 6.00 to 7.00 | Cn1cc(CN2C(=O)c3cc(S(=O)(=O)NC4(C)CC4)cc(Br)c3N3CCN=C23)cn1 [Example 18, 9-bromo-4-((1-methyl-1H-pyrazol-4-yl)methyl)-N-(1-methylcyclopropyl)-5-oxo-1,2,4,5-tetrahydroimidazo[1,2-a]quinazoline-7-sulfonamide] |
| 6.00 to 7.00 | [2H]C([2H])(c1cnn(C)c1)N1C(=O)c2cc(S(=O)(=O)NC3(C)CC3)ccc2N2C1=NCC21CC(CN(C)C)C1 (stereo not shown) [Example 109, 3-((dimethylamino)methyl)-4′-((1-methyl-1H-pyrazol-4-yl)methyl-d2)-N-(1-methylcyclopropyl)-5′-oxo-4′,5′-dihydro-2′H-spiro[cyclobutane-1,1′-imidazo[1,2-a]quinazoline]-7′-sulfonamide] |
| 5.00 to 6.00 | CN1CCC([C@@H]2CN=C3N(Cc4cnn(C)c4)C(=O)c4cc(S(=O)(=O)NC5(C)CC5)ccc4N32)CC1 [Example 70, (R)-4-((1-methyl-1H-pyrazol-4-yl)methyl)-N-(1-methylcyclopropyl)-1-(1-methylpiperidin-4-yl)-5-oxo-1,2,4,5-tetrahydroimidazo[1,2-a]quinazoline-7-sulfonamide] |
| > 7.00 | CCN1C(=O)c2cc(S(=O)(=O)NC3(C)CC3)ccc2N2C1=NC[C@H]2C#CC1CC1 [Example 188, (R)-1-(cyclopropylethynyl)-4-ethyl-N-(1-methylcyclopropyl)-5-oxo-1,2,4,5-tetrahydroimidazo[1,2-a]quinazoline-7-sulfonamide] |
| > 7.00 | CN(C)C1(C#C[C@@H]2CN=C3N(CC4(F)CC4)C(=O)c4cc(S(=O)(=O)NC5(C)CC5)ccc4N32)CC1 [Example 152, (R)-1-((1-(dimethylamino)cyclopropyl)ethynyl)-4-((1-fluorocyclopropyl)methyl)-N-(1-methylcyclopropyl)-5-oxo-1,2,4,5-tetrahydroimidazo[1,2-a]quinazoline-7-sulfonamide] |
| 6.00 to 7.00 | Cn1cc(CN2C(=O)c3cc(S(=O)(=O)NC4(C)CC4)ccc3N3C2=NC[C@H]3CCC#N)cn1 [Example 128, (R)-1-(2-cyanoethyl)-4-((1-methyl-1H-pyrazol-4-yl)methyl)-N-(1-methylcyclopropyl)-5-oxo-1,2,4,5-tetrahydroimidazo[1,2-a]quinazoline-7-sulfonamide] |
| 6.00 to 7.00 | Cn1cc(CN2C(=O)c3cc(S(=O)(=O)NC4(C)CC4)ccc3N3C2=NC[C@H]3C2CCOCC2)cn1 [Example 44, (R)-4-((1-methyl-1H-pyrazol-4-yl)methyl)-N-(1-methylcyclopropyl)-5-oxo-1-(tetrahydro-2H-pyran-4-yl)-1,2,4,5-tetrahydroimidazo[1,2-a]quinazoline-7-sulfonamide] |
| > 7.00 | C[C@@H]1[C@H](CO)N=C2N(Cc3cnn(C)c3)C(=O)c3cc(S(=O)(=O)NC4(C)CC4)ccc3N21 [Example 294, (1R,2R)-2-(hydroxymethyl)-1-methyl-4-((1-methyl-1H-pyrazol-4-yl)methyl)-N-(1-methylcyclopropyl)-5-oxo-1,2,4,5-tetrahydroimidazo[1,2-a]quinazoline-7-sulfonamide] |
| > 7.00 | Cn1cc(CN2C(=O)c3cc(S(=O)(=O)NC4(C)CC4)ccc3N3C2=NCC3COc2cccc(C#N)c2)cn1 (stereo not shown) [Example 136, 1-((3-cyanophenoxy)methyl)-4-((1-methyl-1H-pyrazol-4-yl)methyl)-N-(1-methylcyclopropyl)-5-oxo-1,2,4,5-tetrahydroimidazo[1,2-a]quinazoline-7-sulfonamide] |
| 6.00 to 7.00 | Cn1cc(CN2C(=O)c3cc(S(=O)(=O)NC4(C)CC4)ccc3N3C2=NC[C@H]3C#CC(C)(C)O)cn1 [Example 69, (R)-1-(3-hydroxy-3-methylbut-1-yn-1-yl)-4-((1-methyl-1H-pyrazol-4-yl)methyl)-N-(1-methylcyclopropyl)-5-oxo-1,2,4,5-tetrahydroimidazo[1,2-a]quinazoline-7-sulfonamide] |
| > 7.00 | C[C@@H]1CN=C2N(Cc3cnn(C)c3)C(=O)c3cc(S(=O)(=O)NC4(C)CC4)cc(N4CCC4)c3N21 [Example 2, (R)-9-(azetidin-1-yl)-1-methyl-4-((1-methyl-1H-pyrazol-4-yl)methyl)-N-(1-methylcyclopropyl)-5-oxo-1,2,4,5-tetrahydroimidazo[1,2-a]quinazoline-7-sulfonamide] |
| 5.00 to 6.00 | C[C@@H]1CN=C2N(Cc3cnn(C)c3)C(=O)c3cc(S(=O)(=O)NC4(C)CC4)cc(N4CCN[C@@H](C)C4)c3N21 [Example 82, (R)-1-methyl-4-((1-methyl-1H-pyrazol-4-yl)methyl)-N-(1-methylcyclopropyl)-9-((S)-3-methylpiperazin-1-yl)-5-oxo-1,2,4,5-tetrahydroimidazo[1,2-a]quinazoline-7-sulfonamide] |
| > 7.00 | [2H]C([2H])(c1cnn(C)c1)N1C(=O)c2cc(S(=O)(=O)NC3(C)CC3)ccc2N2C1=NC[C@H]2C#CC1(N(CC)CC)CC1 [Example 241, (R)-1-((1-(diethylamino)cyclopropyl)ethynyl)-4-((1-methyl-1H-pyrazol-4-yl)methyl-d2)-N-(1-methylcyclopropyl)-5-oxo-1,2,4,5-tetrahydroimidazo[1,2-a]quinazoline-7-sulfonamide] |
| 6.00 to 7.00 | C[C@@H]1C[C@H](C)N2C(=N1)N(Cc1cnn(C)c1)C(=O)c1cc(S(=O)(=O)NC3(C)CC3)ccc12 [Example 235, (1S,3R)-1,3-dimethyl-5-((1-methyl-1H-pyrazol-4-yl)methyl)-N-(1-methylcyclopropyl)-6-oxo-2,3,5,6-tetrahydro-1H-pyrimido[1,2-a]quinazoline-8-sulfonamide] |
